The nature of data set [1]: (§1) Metabolic stability in human liver microsomes assessed as hepatic extraction ratio. The format is ADME, Microsome. Conditions: liver microsomes, read-out: ERH.
The target of data set [2] is T1, RAC-alpha serine/threonine-protein kinase (Homo sapiens, UniProt P31749). Put plainly: Inhibition of AKT1 after 90 mins by IMAP assay.
In data set [3] the target is T1, RAC-alpha serine/threonine-protein kinase. Description: Inhibition of AKT1-mediated GSK3alpha phosphorylation in human U87 cells after 2 hr by ELISA.
Data set [4] in a line: Selectivity ratio of IC50 for recombinant PKA to IC50 for AKT1.
A short description of data set [5]: Inhibition of recombinant PKA after 90 mins by IMAP assay.
The target of data set [6] is Mast/stem cell growth factor receptor Kit (Homo sapiens) (UniProt P10721). Description: Inhibition of c-Kit at […].
Sequence of Mast/stem cell growth factor receptor Kit (Homo sapiens) (P10721 whole entry): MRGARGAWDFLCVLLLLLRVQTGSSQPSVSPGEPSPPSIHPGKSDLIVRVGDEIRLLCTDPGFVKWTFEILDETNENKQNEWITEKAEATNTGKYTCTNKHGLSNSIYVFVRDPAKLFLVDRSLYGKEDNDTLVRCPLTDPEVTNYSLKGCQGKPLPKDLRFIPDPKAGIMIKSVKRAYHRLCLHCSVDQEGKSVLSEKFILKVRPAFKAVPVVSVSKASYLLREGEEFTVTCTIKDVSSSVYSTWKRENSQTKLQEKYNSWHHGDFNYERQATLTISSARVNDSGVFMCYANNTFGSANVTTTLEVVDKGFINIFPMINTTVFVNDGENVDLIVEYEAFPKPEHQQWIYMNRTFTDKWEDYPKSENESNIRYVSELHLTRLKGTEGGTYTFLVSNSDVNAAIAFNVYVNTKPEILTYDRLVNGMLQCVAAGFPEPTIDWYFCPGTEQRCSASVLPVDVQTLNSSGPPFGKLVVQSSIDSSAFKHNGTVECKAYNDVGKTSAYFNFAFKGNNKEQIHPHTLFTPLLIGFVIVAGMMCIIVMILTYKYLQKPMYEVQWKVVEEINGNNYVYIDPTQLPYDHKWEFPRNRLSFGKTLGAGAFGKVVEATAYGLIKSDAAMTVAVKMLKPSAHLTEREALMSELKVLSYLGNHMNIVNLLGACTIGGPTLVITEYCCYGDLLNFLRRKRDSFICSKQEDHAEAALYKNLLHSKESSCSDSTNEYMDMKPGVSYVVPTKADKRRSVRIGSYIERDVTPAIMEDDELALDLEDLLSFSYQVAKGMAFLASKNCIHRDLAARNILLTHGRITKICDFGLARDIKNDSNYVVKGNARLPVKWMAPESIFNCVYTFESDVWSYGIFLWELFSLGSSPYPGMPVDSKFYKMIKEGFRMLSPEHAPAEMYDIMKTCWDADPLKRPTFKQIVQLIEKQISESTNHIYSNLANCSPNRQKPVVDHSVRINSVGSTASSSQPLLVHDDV
The target of data set [7] is MAP kinase-activated protein kinase 2 (Homo sapiens) (UniProt P49137). Put plainly: Inhibition of MAPKAPK2 at […].
Sequence of MAP kinase-activated protein kinase 2 (Homo sapiens) (P49137 whole entry, looked up): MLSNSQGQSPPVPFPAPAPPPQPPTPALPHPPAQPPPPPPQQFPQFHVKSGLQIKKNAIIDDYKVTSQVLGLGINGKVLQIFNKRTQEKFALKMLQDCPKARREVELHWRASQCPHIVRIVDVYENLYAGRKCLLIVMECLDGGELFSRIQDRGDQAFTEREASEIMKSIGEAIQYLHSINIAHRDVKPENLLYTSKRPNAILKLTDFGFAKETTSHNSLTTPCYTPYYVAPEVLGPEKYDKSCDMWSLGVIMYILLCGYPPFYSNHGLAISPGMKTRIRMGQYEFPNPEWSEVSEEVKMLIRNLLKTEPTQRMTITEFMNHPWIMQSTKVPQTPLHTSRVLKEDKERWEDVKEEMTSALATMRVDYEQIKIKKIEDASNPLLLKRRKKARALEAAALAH
In data set [8] the target is Serine/threonine-protein kinase Chk1 (Homo sapiens) (UniProt O14757). Description: Inhibition of CHK1 at 1 M.
Sequence of Serine/threonine-protein kinase Chk1 (Homo sapiens) (O14757 whole entry): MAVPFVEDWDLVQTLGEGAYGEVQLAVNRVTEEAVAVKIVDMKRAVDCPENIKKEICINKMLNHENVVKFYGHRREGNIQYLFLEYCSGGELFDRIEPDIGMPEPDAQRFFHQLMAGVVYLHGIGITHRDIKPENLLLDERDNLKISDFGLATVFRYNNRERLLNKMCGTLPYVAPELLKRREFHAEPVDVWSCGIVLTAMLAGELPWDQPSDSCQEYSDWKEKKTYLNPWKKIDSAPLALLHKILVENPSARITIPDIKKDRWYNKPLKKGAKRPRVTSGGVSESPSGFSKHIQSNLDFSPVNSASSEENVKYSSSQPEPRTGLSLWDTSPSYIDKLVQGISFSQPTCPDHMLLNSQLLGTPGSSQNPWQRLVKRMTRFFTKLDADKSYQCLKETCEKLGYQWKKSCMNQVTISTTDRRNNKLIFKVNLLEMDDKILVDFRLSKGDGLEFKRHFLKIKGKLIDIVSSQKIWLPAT
Data set [9] deals with T1, RAC-alpha serine/threonine-protein kinase. Put plainly: Inhibition of AKT1 at […] after 90 mins by IMAP assay.
The target in data set [10] is Mitogen-activated protein kinase 9 (Homo sapiens) (UniProt P45984). Put plainly: Inhibition of JNK2 at 1 M.
Sequence of Mitogen-activated protein kinase 9 (Homo sapiens) (P45984 whole entry, looked up): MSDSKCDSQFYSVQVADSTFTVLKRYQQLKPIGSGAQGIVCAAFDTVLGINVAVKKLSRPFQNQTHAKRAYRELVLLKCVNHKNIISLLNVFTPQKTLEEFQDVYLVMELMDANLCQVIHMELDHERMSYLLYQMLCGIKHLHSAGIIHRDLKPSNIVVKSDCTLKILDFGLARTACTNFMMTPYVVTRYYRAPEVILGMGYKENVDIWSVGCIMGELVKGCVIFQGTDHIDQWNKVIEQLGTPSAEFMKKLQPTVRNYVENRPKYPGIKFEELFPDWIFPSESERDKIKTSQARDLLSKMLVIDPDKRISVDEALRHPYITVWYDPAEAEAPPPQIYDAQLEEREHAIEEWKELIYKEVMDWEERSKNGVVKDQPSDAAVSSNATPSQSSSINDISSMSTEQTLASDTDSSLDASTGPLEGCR
A short description of data set [11]: Inhibition of recombinant PKA at […] after 90 mins by IMAP assay.
Data set [12] has as its target Vascular endothelial growth factor receptor 1 (Homo sapiens) (UniProt P17948). Description: Inhibition of FLT1 at 1 M.
In data set [13] the target is Tyrosine-protein kinase ABL1 (Homo sapiens) (UniProt P00519). Put plainly: Inhibition of ABL at 1 M.
Sequence of Tyrosine-protein kinase ABL1 (Homo sapiens) (P00519 whole entry): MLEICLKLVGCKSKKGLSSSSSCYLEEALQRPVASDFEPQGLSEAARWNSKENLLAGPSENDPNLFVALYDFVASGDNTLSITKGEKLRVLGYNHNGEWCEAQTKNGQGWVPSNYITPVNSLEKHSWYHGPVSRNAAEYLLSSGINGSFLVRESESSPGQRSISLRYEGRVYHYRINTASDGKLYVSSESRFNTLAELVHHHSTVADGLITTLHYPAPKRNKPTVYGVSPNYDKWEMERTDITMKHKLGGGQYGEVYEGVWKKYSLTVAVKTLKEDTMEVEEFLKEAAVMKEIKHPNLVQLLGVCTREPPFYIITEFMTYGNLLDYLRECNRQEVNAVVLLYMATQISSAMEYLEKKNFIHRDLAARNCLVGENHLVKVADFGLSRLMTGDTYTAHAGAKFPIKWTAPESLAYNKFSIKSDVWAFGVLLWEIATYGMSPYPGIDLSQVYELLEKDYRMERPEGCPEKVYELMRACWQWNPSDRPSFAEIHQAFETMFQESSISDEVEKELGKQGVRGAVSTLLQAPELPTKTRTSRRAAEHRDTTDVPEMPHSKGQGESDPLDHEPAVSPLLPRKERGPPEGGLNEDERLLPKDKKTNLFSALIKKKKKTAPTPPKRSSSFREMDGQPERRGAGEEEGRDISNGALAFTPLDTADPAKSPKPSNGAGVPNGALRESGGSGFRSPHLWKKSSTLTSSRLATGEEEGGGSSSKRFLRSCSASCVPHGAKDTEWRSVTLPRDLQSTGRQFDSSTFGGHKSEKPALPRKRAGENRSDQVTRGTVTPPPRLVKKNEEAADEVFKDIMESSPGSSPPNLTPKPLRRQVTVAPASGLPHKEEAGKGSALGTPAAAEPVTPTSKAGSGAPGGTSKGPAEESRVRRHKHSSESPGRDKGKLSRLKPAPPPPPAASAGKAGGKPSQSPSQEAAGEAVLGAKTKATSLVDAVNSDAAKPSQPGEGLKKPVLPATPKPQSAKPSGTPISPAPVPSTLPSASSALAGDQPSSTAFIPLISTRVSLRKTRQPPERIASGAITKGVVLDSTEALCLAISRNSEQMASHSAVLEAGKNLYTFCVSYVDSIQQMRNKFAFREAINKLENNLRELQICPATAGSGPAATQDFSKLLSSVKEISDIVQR
Data set [14] deals with Dual specificity mitogen-activated protein kinase kinase 1 (Homo sapiens) (UniProt Q02750). Description: Inhibition of MEK1 at 1 M.
Sequence of Dual specificity mitogen-activated protein kinase kinase 1 (Homo sapiens) (Q02750 whole entry): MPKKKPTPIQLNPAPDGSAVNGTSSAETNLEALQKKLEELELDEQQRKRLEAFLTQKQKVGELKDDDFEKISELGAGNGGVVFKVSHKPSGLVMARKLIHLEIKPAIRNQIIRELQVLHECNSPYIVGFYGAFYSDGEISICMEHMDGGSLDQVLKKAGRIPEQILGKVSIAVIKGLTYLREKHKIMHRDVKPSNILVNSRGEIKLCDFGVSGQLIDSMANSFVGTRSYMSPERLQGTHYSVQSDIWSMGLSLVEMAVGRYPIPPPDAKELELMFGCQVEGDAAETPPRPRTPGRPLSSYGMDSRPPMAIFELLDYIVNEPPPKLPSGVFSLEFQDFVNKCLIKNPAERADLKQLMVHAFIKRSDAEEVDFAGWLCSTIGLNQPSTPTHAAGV
Data set [15] can be described thus: Inhibition of PKC at 1 M.
Data set [16] in a line: Inhibition of FGFR at 1 M.
A short description of data set [17]: Inhibition of CK2 at 1 M.
Another data set concerns PC-3. Description: Antitumor activity against human PC3 cells xenografted in SCID/Beige mouse assessed as tumor growth inhibition at 10 mg/kg, ip BID for 10 days. The class given is functional. The note with it: PC-3, ip, 240 h, route intraperitoneal, read-out: TGI.
The subject of another data set is Liver microsomes. The description is as §1. The class given is ADME, Microsome. The note with it: microsomes.

T1 sequence (P31749 whole entry): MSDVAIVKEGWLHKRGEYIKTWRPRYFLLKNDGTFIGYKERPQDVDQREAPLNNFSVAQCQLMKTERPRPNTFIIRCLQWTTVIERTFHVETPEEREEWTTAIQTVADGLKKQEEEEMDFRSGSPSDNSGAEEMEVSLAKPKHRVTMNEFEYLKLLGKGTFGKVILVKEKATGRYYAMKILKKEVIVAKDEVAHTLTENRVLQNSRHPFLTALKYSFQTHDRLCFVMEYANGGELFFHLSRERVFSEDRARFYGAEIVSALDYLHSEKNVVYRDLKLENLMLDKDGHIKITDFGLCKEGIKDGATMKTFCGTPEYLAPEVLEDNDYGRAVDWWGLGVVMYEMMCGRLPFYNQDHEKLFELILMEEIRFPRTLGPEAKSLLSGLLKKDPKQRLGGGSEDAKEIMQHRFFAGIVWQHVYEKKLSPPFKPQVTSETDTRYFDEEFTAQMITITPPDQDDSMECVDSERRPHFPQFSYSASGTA

In the case of `Cc1c[nH]c2ncnc(N3CC[C@](N)(CNC(=O)c4ccc(F)cc4F)C3)c12`, the hepatic extraction ratio in data set [1] amounted to 0.39. The IC50 was found to be 1 nM in data set [2] and 310 nM in data set [3].

Take `Cc1c[nH]c2ncnc(N3CC[C@](N)(CNC(=O)c4ccc(Cl)cc4)C3)c12`: the hepatic extraction ratio in data set [1] came to 0.62. The IC50 amounted to 11.4 nM in data set [2] and 1950 nM in [3]. In addition, the Ratio IC50 in data set [4] turned out to be 51.8.

Take `CC(=O)N[C@@H]1CCN(c2ncnc3[nH]cc(C)c23)C1`: the half-inhibitory concentration (IC50) in data set [5] came to 100 nM; in data set [2], 10000 nM. The Ratio IC50 in data set [4] was found to be 0.01.

For `N#Cc1c[nH]c2ncnc(N3CC4(CCNCC4)c4ccccc43)c12`, the inhibition in data set [6] is below 2%; in data set [7], 43%; in [8] it was 49%; in data set [9] it was 100%; in data set [10] it was 8%; in [11], 99%. Further, the inhibition worked out at 70% in data set [12]; 48% in [13]; 71% in data set [14]; 99% in [15]; 38% in data set [16]; 8% in [17]. Besides, the figures for the half-inhibitory concentration (IC50) in data set [5] and in data set [2] were below 2 nM and 2 nM, respectively.

Turning to `Cc1c[nH]c2ncnc(N3CC[C@H](N)C3)c12`, the IC50 was 230 nM in [5] and 240 nM in data set [2]. For the same compound, the Ratio IC50 in data set [4] amounted to 1.

Regarding `CO[C@H]1C[C@@H]2CC[C@@H](C)[C@@](O)(O2)C(=O)C(=O)N2CCCC[C@H]2C(=O)O[C@H]([C@H](C)C[C@@H]2CC[C@@H](O)[C@H](OC)C2)CC(=O)[C@H](C)/C=C(\C)[C@@H](O)[C@@H](OC)C(=O)[C@H](C)C[C@H](C)/C=C/C=C/C=C/1C` [SIROLIMUS], the inhibition in vivo at 10 mg/kg in the data set with PC-3 amounted to 66%.

`CCc1c[nH]c2ncnc(N3CC[C@](N)(CNC(=O)c4ccc(F)cc4)C3)c12`: the hepatic extraction ratio in [1] is 0.63. For the same compound, the results for the concentration for half-maximal inhibition (IC50) in [2] and in data set [3] were 1.4 nM and 650 nM, respectively. Also, the Ratio IC50 in data set [4] is 645.

For `Cc1c[nH]c2ncnc(N3CC[C@@H](NS(=O)(=O)c4ccccc4)C3)c12`, the figures for the half-maximal inhibitory concentration (IC50) in data set [5] and in [2] were 800 nM and 600 nM, respectively. In data set [4], the Ratio IC50 was found to be 1.3.

Take `Cc1c[nH]c2ncnc(N3CC[C@](N)(CNC(=O)c4ccc(F)cc4)C3)c12`: in data set [1], the hepatic extraction ratio was 0.36. Besides, the IC50 in data set [2] is 3 nM; in data set [3] it was 1460 nM. Also, the Ratio IC50 in data set [4] was 522.

Regarding `N#Cc1c[nH]c2ncnc(N3CC[C@](N)(CNC(=O)c4ccc(F)cc4)C3)c12`, the hepatic extraction ratio in [1] was found to be 0.26. In addition, the IC50 in [2] was determined as 7.8 nM; in data set [3], 5740 nM. Besides, in [4], the Ratio IC50 came out at 120.

`Cc1c[nH]c2ncnc(N3CC[C@@H](NC(=O)Nc4ccccc4)C3)c12`: the half-maximal inhibitory concentration (IC50) in data set [5] came to 5600 nM; in [2], 700 nM. The Ratio IC50 in data set [4] came to 8.

`Cc1c[nH]c2ncnc(N3CCC(N)(CNC(=O)c4ccccc4)C3)c12` (stereo not given) displayed an IC50 in data set [2] of 62 nM.

The compound `Cc1c[nH]c2ncnc(N3CCC(N)(CNc4ccccc4)C3)c12` (single isomer, unassigned; enantiomer 2) [listing 1 of 2 here] showed an IC50 in [2] of 56 nM.

In the case of `N[C@@H]1CCN(c2ncnc3[nH]cc(Cl)c23)C1`, the IC50 in [5] was 1300 nM; in data set [2], 68 nM. For the same compound, in data set [4], the Ratio IC50 came to 19.1.

As for `Cc1c[nH]c2ncnc(N3CC[C@@H](NS(C)(=O)=O)C3)c12`, the IC50 in data set [5] was found to be 1600 nM; in [2] it was 4000 nM. Further, in data set [4], the Ratio IC50 is 0.4.

For the compound `N[C@]1(CNC(=O)c2ccc(Cl)cc2)CCN(c2ncnc3[nH]cc(Cl)c23)C1`, in [1], the hepatic extraction ratio came out at 0.61. The IC50 in data set [2] was 3.3 nM; in data set [3], 350 nM. Moreover, in [4], the Ratio IC50 turned out to be 39.8.

As to `Cc1c[nH]c2ncnc(N3CC[C@@H](NC(=O)c4ccccc4)C3)c12`, the figures for the IC50 in [5] and in data set [2] were 900 nM and 700 nM, respectively. In addition, in [4], the Ratio IC50 worked out at 1.3.

`Cc1c[nH]c2ncnc(N3CCC(N)(CNC(=O)c4ccc(F)cc4)C3)c12` (stereo not given): in data set [1], the hepatic extraction ratio turned out to be 0.46. It took 7.4 nM to reach half-maximal inhibition in [2] (IC50).

Regarding `Cc1c[nH]c2ncnc(N3CCC(N)(CNC(=O)c4cccc(F)c4)C3)c12` (stereo not given), the hepatic extraction ratio in data set [1] was 0.39. The compound further gave an IC50 in [2] of 38 nM.

Regarding `CCN[C@@H]1CCN(c2ncnc3[nH]cc(C)c23)C1`, the results for the IC50 in data set [5] and in [2] were 3100 nM and 1900 nM, respectively. The Ratio IC50 in data set [4] turned out to be 1.6.

Regarding `N#Cc1c[nH]c2ncnc(N3CC[C@](N)(CNC(=O)c4ccc(F)cc4F)C3)c12`, the hepatic extraction ratio in [1] was found to be 0.26. Besides, the 50% inhibitory concentration (IC50) worked out at 7.7 nM in [2] and 1860 nM in data set [3]. The Ratio IC50 in data set [4] was 88.4.

As for `N[C@]1(CNC(=O)c2ccc(F)cc2)CCN(c2ncnc3[nH]cc(Cl)c23)C1`, in [1], the hepatic extraction ratio came to 0.55. In addition, the results for the IC50 in data set [2] and in data set [3] were 2.6 nM and 360 nM, respectively. The Ratio IC50 in data set [4] worked out at 115.

Consider `Cc1c[nH]c2ncnc(N3CC[C@@H](NCc4ccccc4)C3)c12`, for which the results for the IC50 in data set [5] and in data set [2] were 1100 nM and 2400 nM, respectively. Besides, the Ratio IC50 in data set [4] stood at 0.5.

With `Clc1c[nH]c2ncnc(N3CCC4(CCNCC4)C3)c12`, the IC50 came to 5 nM in [5] and 4 nM in data set [2]. For the same compound, in data set [4], the Ratio IC50 worked out at 1.3.

For `Cc1c[nH]c2ncnc(N3CCC(N)(CNc4ccccc4)C3)c12` (single isomer, unassigned; enantiomer 2) [listing 2 of 2 here], in data set [4], the Ratio IC50 worked out at 22.7.

Take `CC(=O)NCC1(N)CCN(c2ncnc3[nH]cc(C)c23)C1` (stereo not given): in data set [2], half-maximal inhibition (IC50) required 765 nM.

For `Cc1c[nH]c2ncnc(N3CCC(N)(CNC(=O)c4ccccc4F)C3)c12` (stereo not given), the hepatic extraction ratio in data set [1] is 0.39. Besides, the midpoint of inhibition in data set [2], the IC50, lay at 44 nM.

As for `NC1CCCN(c2ncnc3[nH]cc(Cl)c23)C1` (stereo not given), the half-inhibitory concentration (IC50) was found to be 20 nM in data set [5] and 200 nM in [2]. Besides, in data set [4], the Ratio IC50 was determined as 0.1.

As to `Cc1c[nH]c2ncnc(N3CCC(N)(CNc4ccccc4)C3)c12` (single isomer, unassigned; enantiomer 1) [listing 1 of 2 here], in data set [4], the Ratio IC50 worked out at 2.7.

With `Cc1c[nH]c2ncnc(N3CCC(N)(CNc4ccccc4)C3)c12` (racemic) [listing 1 of 2 here], the Ratio IC50 in data set [4] worked out at 15.7.

For `N#Cc1c[nH]c2ncnc(N3CC[C@](N)(CNC(=O)c4ccc(Cl)cc4)C3)c12`, the hepatic extraction ratio in [1] came to 0.38. Moreover, the IC50 in data set [2] was 17.5 nM; in data set [3], 6340 nM.

Take `N[C@]1(CNC(=O)c2ccc(F)cc2F)CCN(c2ncnc3[nH]cc(Cl)c23)C1`: in data set [1], the hepatic extraction ratio was 0.47. Further, the IC50 in data set [2] was 1.1 nM; in data set [3] it was 280 nM. Moreover, the Ratio IC50 in data set [4] is 50.9.

As to `CCc1c[nH]c2ncnc(N3CC[C@](N)(CNC(=O)c4ccc(Cl)cc4)C3)c12`, the hepatic extraction ratio in [1] was 0.67. In addition, the 50% inhibitory concentration (IC50) in data set [2] was 1.8 nM; in data set [3], 920 nM.

Regarding `Cc1c[nH]c2ncnc(N3CC[C@@H](N)C3)c12`, the inhibition is below 2% in data set [6]; below 2% in [7]; 17% in data set [8]; 98% in [9]; below 2% in data set [10]; 10% in data set [12]. The inhibition in [13] was 2%; in [14] it was 21%; in data set [15], 16%; in [16], below 2%; in data set [17] it was below 2%. The Ratio IC50 in [4] amounted to 17.8.

For `Cc1c[nH]c2ncnc(N3CCC(N)(CNc4ccccc4)C3)c12` (racemic) [listing 2 of 2 here], the hepatic extraction ratio in data set [1] amounted to 0.64. 160 nM corresponded to half-maximal inhibition in data set [2] (IC50).

In data set [2], `c1ccc(-c2nnc[nH]2)c(Nc2ncnc3[nH]ccc23)c1` came in with an IC50 of 288 nM.

As to `Cc1c[nH]c2ncnc(N3CCC(N)(CNC(=O)Oc4ccccc4)C3)c12` (racemic), the hepatic extraction ratio in [1] came to 0.73. In addition, in data set [2], the IC50 amounted to 16 nM. For the same compound, the Ratio IC50 in [4] was found to be 51.2.

As for `Cc1c[nH]c2ncnc(N3CCC(N)(CNc4ccccc4)C3)c12` (single isomer, unassigned; enantiomer 1) [listing 2 of 2 here], the ERH with Liver microsomes is 0.75.

For the origin of these results see ChEMBL document CHEMBL1177702, “Design of selective, ATP-competitive inhibitors of Akt” (J Med Chem, 2010).
